A melting point compilation (Tetko et al.; mined from patent text by program, amines drawn as free bases though some values may be those of a salt)

Structure (SMILES) | melting point [°C]
O=C(NC(CS)Cc1ccccc1)N1CCCCCC1 (single isomer, unassigned; (+)) | 102
O=C(O)c1ccc(C(F)F)c2ccccc12 | 179 to 180
CC(C)N[C@@H](Cc1ccccc1)C(=O)N1CCN(C(c2ccc(F)cc2)c2ccc(F)cc2)CC1 | 45 to 58
Cc1cccc(C#Cc2cccc(Br)c2)n1 | 60 to 61
CC(C)C(NC(=O)C(NC(=O)C1CCCN1C(=O)OC(C)(C)C)C(Cc1ccccc1)C(=O)O)C(=O)NC(Cc1ccc(O)cc1)C(=O)OCc1ccccc1 (stereo not given) | 75 to 78
Cc1cc(F)c(N)cc1N | 112
CCCCCCCCCCCCCCOCC(CO)(CO)COCCCCCCCCCCCCCC | 63 to 64
CC(C)C(=O)O[C@H]1[C@H](C)OC(=O)[C@@H](NC(=O)OC(C)(C)C)COC(=O)[C@@H]1CC(=O)OC(C)(C)C | 170 to 172
O=[N+]([O-])c1ccc(Nc2c(F)c(F)nc(F)c2F)c(C(F)(F)F)c1 | 104 to 105
O=C1COc2ccc(Br)cc2N1O | 201 to 204
Cc1ccc(NC(=O)c2ccc(O)c([N+](=O)[O-])c2)cc1C | 209 to 212
CC12CCC3C(CC=C4CC(O)CCC43C)C1=CCC2=O (stereo not given) | 161 to 164
O=C(NCc1ccc(C(=O)O)c(OCc2ccccc2)c1)OCc1ccccc1 | 139 to 140
CCOC(=O)COC(=O)c1cc2c(cn1)[nH]c1ccccc12 | 165 to 168
Nc1ccc2[nH]nc(-c3ccccc3)c2c1 | 104
Cc1ncsc1NC(=O)Nc1ccc(-n2nc(C(F)(F)F)cc2C2CC2)cc1 | 124 to 126
COc1ccc(C(=O)C(O)c2ccccc2)cc1 (stereo not given) | 99 to 101
O=C(Cc1ccc2ccn(C3CCN(CCc4ccccc4F)CC3)c2c1)NCCO | 128 to 129
CCNCC1CCN(c2c(F)cc3c(=O)c(C(=O)O)cn(C4CC4)c3c2F)C1 (stereo not given) | 256 to 258
CCCN(CCC)CCCCCOc1ccc2oc(-c3cccc(OC)c3)cc(=O)c2c1 | 80 to 81
CC(C)(C)OC(=O)NNC1CCN(C(=O)OC(C)(C)C)CC1 | 112 to 115
COc1ccc(CCc2ccccc2C2(OC)C=CC(C(N)=O)=C(O)C2)cc1OC (stereo not given) | 146 to 148

Structure (SMILES) | melting point [°C]
COc1cc(C=O)cc2c(C)c(C)oc12 | 80 to 81
C=C(c1ccc(Cl)cc1)c1ccc(NC(=O)c2cc(I)cc(I)c2O)cc1Cl | 171 to 175
O=C(O)C1CCCCC1n1nc(-c2c(-c3ccccc3)nn3ccccc23)ccc1=O (stereo not given) | 164
CC(C)(C)OC(=O)Nc1ccc(OC2CNC2)cc1 | 184 to 186
COc1ccc(S(=O)(=O)Nc2ccc(-c3ccccc3)cc2)cc1OC | 171 to 173
C#Cc1ccc(Nc2c(-c3nnc(NCCO)o3)ccc(F)c2F)c(F)c1 | 112 to 115
CCOC(=O)CC(=O)N(C)c1ccccc1[N+](=O)[O-] | 54 to 55
O=C(O)CCCCCCc1nc2ccccc2s1 | 62 to 63
CN1C(=O)C(c2ccc(Cl)cc2)S(=O)C1c1cccnc1 (stereo not given) | 149 to 153
CCC(CS(=O)(=O)c1ccc(-c2ccc(OC)cc2)cc1)N(O)C=O (stereo not given) | 199 to 200
CN1CCc2c(Br)sc(Br)c2C(c2ccccc2)C1 (stereo not given) | 83
COC(=O)C(=CN(C)C)C(=O)c1cc(F)c(Cl)cc1Cl | 107 to 109
CN(C)CCCCC(=O)c1ccc2c(c1)C(=O)c1cc(C(=O)CCCCN(C)C)ccc1-2 | 150 to 151
COc1ccc([C@@H]2O[C@H]2C(=O)Nc2ccccc2)cc1 | 162 to 163
N#CN1CCC(c2n[nH]c3cc(Cl)ccc23)CC1 | 180 to 188
CCOC(=O)c1c(C)nc(N2CCN(C)CC2)c([N+](=O)[O-])c1Cl | 59 to 61
Cc1nc2sccn2c(=O)c1CCN1CCC(=C2c3ccc(F)cc3CCn3ncnc32)CC1 | 162
Cc1noc(NS(=O)(=O)c2cccc3cccnc23)c1Br | 169 to 171
CN1C(=O)CN=C(C2CCCCC2)c2ccccc21 | 98 to 100
NC(=O)c1cc(Oc2ccc3c(C(=O)Nc4cccc(C(F)(F)F)c4)cccc3c2)ccn1 | 117 to 120
Clc1ccc(CCN2CCC3(CC2)Oc2ccccc2Cn2cccc23)cc1 | 116 to 118
O=c1ccc(Cl)cn1[C@@H]1c2ccccc2OCC[C@H]1O (relative stereo) | 176 to 178

Next, values leading:

melting point [°C] | Structure (SMILES)
185 to 186 | O=C1N=CC(OCC2CC2)(C(F)(F)F)c2cc(Cl)ccc2N1 (stereo not given)
214 to 215 | CN1CCN(C(=O)c2cc(S(=O)(=O)NC34CC5CC(CC(C5)C3)C4)ccc2N)CC1
74 to 75 | CC(=O)Oc1ccc(C2(c3ccc(OC(C)=O)cc3)C(c3ccccc3)C2(Cl)Cl)cc1 (stereo not given)
57.5 | CCCCC[C@H]1CC[C@H](CCc2ccc(-c3ccc(Br)cc3F)cc2)CC1
> 300 | O=c1[nH]c2cc(-c3ccncc3)c(C(F)(F)F)nc2[nH]1
112 to 118 | Cc1ccccc1C(=O)Nc1ccc(C(=O)N2c3ccccc3CCc3ccccc32)cc1
214 | COc1ccc(C(=O)O)c(C)c1C
92 to 98 | CC(O)C1C(=O)N2C1=CC(=O)C2C(=O)OCc1ccc([N+](=O)[O-])cc1 (stereo not given)
61 to 65 | CCCc1cc(C(=O)O)cc(CCC)c1OCCCCCCc1cccc(OC)c1OC
141 | COc1cc(-c2nc3ccc(OCCCN(C)C)cc3n2Cc2ccccc2Br)cc(OC)c1OC
216 | Cc1c(-c2ccc(N(C)C)nn2)ssc1=S
165 to 168 | COc1cc(OC)c2c(C)c3n(c(=O)c2c1)CCCC3
170 to 173 | CC(C)(C)OC(=O)Nc1ccc(C#Cc2ccc(Cl)cc2)cc1N
101 | CCCCCCCCCCC=NNC(=N)N
217 to 219 | CC[C@H]1CN(c2c(F)cc3c(=O)c(C(=O)O)cn([C@@H]4C[C@@H]4F)c3c2OC)C[C@H]1N
148 | Cc1c(NC(=O)c2ccc(OCCCC(F)(F)F)cc2F)ccc2cc(CN3CCCC3)cnc12
184 to 185 | CC12CCC(O)CC1CCC1C2CCC2(C)C1CCC2(SCc1ccccc1)SCc1ccccc1 (stereo not given)
156 to 159 | O=C(Nc1ccc(-n2nc(C(F)(F)F)cc2C(F)(F)F)nc1)c1ccccc1Cl
240 to 241 | CC(C)(F)Cn1c(CO)nc2c(N)nc3cccnc3c21

melting point [°C] | Structure (SMILES)
182 to 184 | Cc1cc(=O)n2cccc(OCc3ccc(Cl)cc3Br)c2n1
177 to 178 | Cc1nn(-c2ccccn2)c2ncc(C(=O)c3ccccc3)c(Cl)c12
164 | CCOC(=O)C1=C(C)N2CCNC2=C(C(=O)OCC)C1c1ccco1 (stereo not given)
260 | O=C(O)CC1CCC(N2CCC(CNc3ccncc3)CC2)CC1 (stereo not given)
105 to 108 | Cc1cc(C(=O)c2ccc(Cl)cc2)ccc1[N+](=O)[O-]
139 to 140 | CON(C)C(=O)C1(C)CCc2c(C)c(O)c(C)c(C)c2O1 (stereo not given)
112 | COC(=O)c1cc(N)c(C)c(-n2cccc2)c1
126 to 127 | CC12CCC3c4ccc(OCc5ccccc5)cc4CCC3C1CCC2=O (stereo not given)
122 | N#CC(=Cc1ccccc1F)C(O)C#N (stereo not given)
119 | C=CCn1c(C)nc2c3c(ccc21)[C@@H](OCCF)[C@H](OC(=O)C(C)(C)C)[C@@H](c1ccccc1)O3
77 | CCOCCNc1nc(Cl)nc(Cl)n1
159 to 161 | Cn1cc(-c2cc(Oc3ccccc3)c(Cl)cc2F)c(=O)cc1C(F)(F)F
167 to 168 | COc1cc(C(=O)N2CCNC(C(=O)N(C)C)C2)cc(OC)c1OC (stereo not given)
134 to 137 | Nc1nc(NCC(c2ccccc2)c2ccccc2)c2ncn(C3OC(CO)C(O)C3O)c2n1 (stereo not given)
126 to 127 | O=C(c1ccc(Cl)cc1)c1cc2ccccc2cn1
114 to 116 | C[C@H]1CCCC(C)(C)[C@@H]1[C@H](O)c1ccc(C#N)c(F)c1
116 to 119 | CON1CCC(CC2NC(=O)C(c3cc(C)ccc3C)=C2O)CC1 (stereo not given)
146 to 155 | CCCCCCCCNc1c(Nc2ccc(CC(C)NC[C@H](O)COc3ccccc3)cc2)c(=O)c1=O (stereo not given in full)
217 | Cc1cccc(Cl)c1NS(=O)(=O)c1n[nH]c(N)n1

melting point [°C] | Structure (SMILES)
170 to 171 | O=C(c1ccc(-c2cccc3ccccc23)cc1)N1Cc2cccn2Cc2ccccc21
277 | COc1ccc2c(c1)c1c3c(c(-c4ccccc4Cl)cc1n2CCC(=O)O)C(=O)NC3=O
125 to 126 | CNC(=S)C1=CC(CF)(CF)Oc2ccc(C(F)(F)C(F)(F)C(F)(F)F)cc21
123 to 125 | Cc1ccc(NCCSC#N)c([N+](=O)[O-])c1
150 to 155 | CN(C=O)CNC(=O)c1cc(Cl)nc(Cl)c1
154 to 155 | COCC(C)N(C)Cc1c(-c2ccc(NC(=O)NOC)cc2)sc2c1c(=O)n(-c1ccccc1)c(=O)n2Cc1c(F)cccc1F (stereo not given)
155 to 157 | CCCCCCNCc1ccc(COc2cccc3c2CN(C2CCC(=O)NC2=O)C3=O)cc1 (stereo not given)
140 to 141 | C[C@@H](c1ncncc1F)[C@@](Cn1cncn1)(OP(=O)(OCc1c(F)cccc1Cl)OCc1c(F)cccc1Cl)c1ccc(F)cc1F
74 to 75 | COC(=O)c1cc2c(cc1OC)OCO2
58 to 61 | CCOC(=O)CNCc1cc(I)ccc1N
181 | O=C(CC1COCCO1)NC1CCC(CCN2CCN(c3nccc4c3OCC4)CC2)CC1 (stereo not given)
150 to 152 | CN1c2ccc(Cl)cc2C(c2ccccc2Cl)=Nc2cccnc21
128 to 129 | COP(=O)(Cc1ccc([N+](=O)[O-])c2ccccc12)OC
102 | O=C(OCc1ccccc1)N1CCC(O)(c2ccc(C(F)(F)F)cc2)CC1
> 300 | COc1ccc(Cl)cc1-c1c(N)c(=O)[nH]c2cc(Cl)c(Cl)cc12
58.5 to 60 | CC(CC1C(C(=O)O)C1(C)C)=C(Cl)Cl (stereo not given)
125 to 127 | CC(C)(CCn1cnnc1)NCC(O)c1ccc(O)c(CO)c1 (stereo not given)
173 to 175 | COc1ccc(N2CCN(CC(O)COc3cccc4cc(C(C)=O)oc34)CC2)cc1 (stereo not given)
